Reference: US11090319B2, “Therapeutic uses of pharmaceutical compositions comprising cyclic boronic acid ester derivatives” (Melinta Subsidiary Corp., priority 2010, dated 2021)

Columns and labels:
Test in all cases: Ceftazidime MIC with fixed concentration of BLI
Format in all cases: cell-based
[1] = tested on: AB1054 Acinetobacter baumannii OXA-23; conditions: AB1054 OXA-23
Method: (§1) Next, ceftazidime potentiation activity of several cyclic boronic acid ester derivatives was tested using a larger panel of strains expressing β-lactamase hydrolyzing enzymes. Ceftazidime MICs were determined alone and in the presence of fixed concentrations of various cyclic boronic acid ester derivatives.

[2] = tested on: AB1057 Acinetobacter baumannii OXA-58; conditions: AB1057 OXA-58
Method: as §1

[3] = tested on: EC1004 Escherichia coli CMY-2; conditions: EC1004 CMY-2
Method: as §1

[4] = tested on: EC1006 Escherichia coli FOX-5; conditions: EC1006 FOX-5
Method: as §1

[5] = tested on: EC1007 Escherichia coli KPC-3; conditions: EC1007 KPC-3
Method: as §1

[6] = tested on: EC1008 Escherichia coli CTX-M3
Method: as §1

[7] = tested on: EC1009 Escherichia coli TEM-10; conditions: EC1009 TEM-10
Method: as §1

[8] = tested on: EC1010 Escherichia coli CMY-6; conditions: EC1010 CMY-6
Method: as §1

[9] = tested on: EC1011 Escherichia coli TEM-26; conditions: EC1011 TEM-26
Method: as §1

[10] = tested on: EC1014 Escherichia coli DHA-1; conditions: EC1014 DHA-1
Method: as §1

[11] = tested on: ECL1002 Enterobacter cloacae Hyper AmpC expression
Method: as §1

[12] = tested on: KP1004 Klebsiella pneumoniae KPC-2; conditions: KP1004 KPC-2
Method: as §1

[13] = tested on: KP1005 Klebsiella pneumoniae CTX-M-14; conditions: KP1005 CTX-M-14
Method: as §1

[14] = tested on: KP1007 Klebsiella pneumoniae OXA-10; conditions: KP1007 OXA-10
Method: as §1

[15] = tested on: KP1008 Klebsiella pneumoniae KPC-2; conditions: KP1008 KPC-2
Method: as §1

[16] = tested on: KP1009 Klebsiella pneumoniae CTX-M-15; conditions: KP1009 CTX-M-15
Method: as §1

[17] = tested on: KP1010 Klebsiella pneumoniae SHV-12; conditions: KP1010 SHV-12
Method: as §1

[18] = tested on: KP1012 Klebsiella pneumoniae SHV-18; conditions: KP1012 SHV-18
Method: as §1

[19] = tested on: KX1000 Klebsiella oxytoca OXA-2; conditions: KX1000 OXA-2
Method: as §1

[20] = tested on: PAM2005 Pseudomonas aeruginosa ampC
Method: as §1

[21] = tested on: PAM2035 Pseudomonas aeruginosa ampC mexA:tet
Method: as §1

[22] = tested on: ec300 Escherichia coli TEM-3; conditions: ec300 TEM-3
Method: as §1

[23] = tested on: ec301 Escherichia coli TEM-6; conditions: ec301 TEM-6
Method: as §1

[24] = tested on: ec302 Escherichia coli TEM-10; conditions: ec302 TEM-10
Method: as §1

[25] = tested on: ec303 Escherichia coli TEM-12; conditions: ec303 TEM-12
Method: as §1

[26] = tested on: ec306 Escherichia coli SHV-2; conditions: ec306 SHV-2
Method: as §1

[27] = tested on: ec307 Escherichia coli SHV-4; conditions: ec307 SHV-4
Method: as §1

[28] = tested on: ec308 Escherichia coli SHV-5; conditions: ec308 SHV-5
Method: as §1

[29] = tested on: ec309 Escherichia coli MIR-1; conditions: ec309 MIR-1
Method: as §1

[30] = tested on: ec310 Escherichia coli ACT-1; conditions: ec310 ACT-1
Method: as §1

[31] = tested on: pa1063 Pseudomonas aeruginosa GES-1; conditions: pa1063 GES-1
Method: as §1

[32] = Acinetobacter baumannii, read-out: Ceftazidime MIC Alone
[33] = Escherichia coli, read-out: Ceftazidime MIC Alone
[34] = Klebsiella pneumoniae, read-out: Ceftazidime MIC Alone
[35] = Pseudomonas aeruginosa, read-out: Ceftazidime MIC Alone

Work on `CC(C)(O/N=C(\C(=O)N[C@@H]1C(=O)N2C(C(=O)[O-])=C(C[n+]3ccccc3)CS[C@H]12)c1csc(N)n1)C(=O)O` [Ceftazidime, reference compound] yielded an MIC [1, 32] of over 8 µg/mL, an MIC [2, 32] of over 8 µg/mL and an MIC [3, 33] of over 8 µg/mL. It also gave an MIC [4, 33] of over 8 µg/mL, an MIC [5, 33] of over 8 µg/mL and an MIC [6, 33] of over 8 µg/mL. It also gave an MIC [7, 33] of over 8 µg/mL, an MIC [8, 33] of over 8 µg/mL and an MIC [9, 33] of over 8 µg/mL. For the same molecule, the MIC [10, 33] was over 8 µg/mL, the MIC ([11]; Enterobacter cloacae, read-out: Ceftazidime MIC Alone) was over 8 µg/mL and the MIC [12, 34] was over 8 µg/mL. It also gave an MIC [13, 34] of over 8 µg/mL, an MIC [14, 34] of over 8 µg/mL and an MIC [15, 34] of 1 to 8 µg/mL. For the same molecule, the MIC [16, 34] was over 8 µg/mL, the MIC [17, 34] was over 8 µg/mL and the MIC [18, 34] was over 8 µg/mL. It also gave an MIC ([19]; Klebsiella oxytoca, read-out: Ceftazidime MIC Alone) of over 8 µg/mL, an MIC [20, 35] of over 8 µg/mL and an MIC [21, 35] of over 8 µg/mL. The MIC [22, 33] was over 8 µg/mL, the MIC [23, 33] was over 8 µg/mL and the MIC [24, 33] was over 8 µg/mL. It also gave an MIC [25, 33] of over 8 µg/mL, an MIC [26, 33] of over 8 µg/mL and an MIC [27, 33] of over 8 µg/mL. For the same molecule, the MIC [28, 33] was over 8 µg/mL, the MIC [29, 33] was over 8 µg/mL and the MIC [30, 33] was over 8 µg/mL. It also gave an MIC [31, 35] of over 8 µg/mL.

With `O=C(O)CC1CC[C@H](NC(=O)C2CC2)B(O)O1` (stereo partly drawn) [Compound 4, 2-((3R)-3-(cyclopropanecarboxamido)-2-hydroxy-1,2-oxaborinan-6-yl)acetic acid] the “Ceftazidime MIC with cyclic boronic acid ester derivative” value (from here on “Ceftazidime MIC”) ([1]; derivative at 10 μg/mL) was “Z (MIC of greater than 8 μg/mL)”, the “Ceftazidime MIC” value ([2]; derivative at 10 μg/mL) was “Z (MIC of greater than 8 μg/mL)” and the “Ceftazidime MIC” value ([3]; derivative at 10 μg/mL) was “Y (MIC of greater than 1 μg/mL to 8 μg/mL)”. The “Ceftazidime MIC” value ([4]; derivative at 10 μg/mL) was “Z (MIC of greater than 8 μg/mL)”, the “Ceftazidime MIC” value ([5]; derivative at 10 μg/mL) was “X (MIC of 1 μg/mL or less)” and the “Ceftazidime MIC” value ([6]; derivative at 10 μg/mL) was “Y (MIC of greater than 1 μg/mL to 8 μg/mL)”. For the same molecule, the “Ceftazidime MIC” value ([7]; derivative at 10 μg/mL) was “Z (MIC of greater than 8 μg/mL)”, the “Ceftazidime MIC” value ([8]; derivative at 10 μg/mL) was “Y (MIC of greater than 1 μg/mL to 8 μg/mL)” and the “Ceftazidime MIC” value ([9]; derivative at 10 μg/mL) was “Z (MIC of greater than 8 μg/mL)”. For the same molecule, the “Ceftazidime MIC” value ([10]; derivative at 10 μg/mL) was “Y (MIC of greater than 1 μg/mL to 8 μg/mL)”, the “Ceftazidime MIC” value ([11]; derivative at 10 μg/mL) was “Y (MIC of greater than 1 μg/mL to 8 μg/mL)” and the “Ceftazidime MIC” value ([12]; derivative at 10 μg/mL) was “Y (MIC of greater than 1 μg/mL to 8 μg/mL)”. For the same molecule, the “Ceftazidime MIC” value ([13]; derivative at 10 μg/mL) was “Z (MIC of greater than 8 μg/mL)”, the “Ceftazidime MIC” value ([14]; derivative at 10 μg/mL) was “Z (MIC of greater than 8 μg/mL)” and the “Ceftazidime MIC” value ([15]; derivative at 10 μg/mL) was “X (MIC of 1 μg/mL or less)”. The “Ceftazidime MIC” value ([16]; derivative at 10 μg/mL) was “Z (MIC of greater than 8 μg/mL)”, the “Ceftazidime MIC” value ([17]; derivative at 10 μg/mL) was “Z (MIC of greater than 8 μg/mL)” and the “Ceftazidime MIC” value ([18]; derivative at 10 μg/mL) was “Z (MIC of greater than 8 μg/mL)”. For the same molecule, the “Ceftazidime MIC” value ([19]; derivative at 10 μg/mL) was “Y (MIC of greater than 1 μg/mL to 8 μg/mL)”, the “Ceftazidime MIC” value ([20]; derivative at 10 μg/mL) was “Z (MIC of greater than 8 μg/mL)” and the “Ceftazidime MIC” value ([21]; derivative at 10 μg/mL) was “Z (MIC of greater than 8 μg/mL)”. The “Ceftazidime MIC” value ([22]; derivative at 10 μg/mL) was “Z (MIC of greater than 8 μg/mL)”, the “Ceftazidime MIC” value ([23]; derivative at 10 μg/mL) was “Z (MIC of greater than 8 μg/mL)” and the “Ceftazidime MIC” value ([24]; derivative at 10 μg/mL) was “Z (MIC of greater than 8 μg/mL)”. The “Ceftazidime MIC” value ([25]; derivative at 10 μg/mL) was “Z (MIC of greater than 8 μg/mL)”, the “Ceftazidime MIC” value ([26]; derivative at 10 μg/mL) was “Z (MIC of greater than 8 μg/mL)” and the “Ceftazidime MIC” value ([27]; derivative at 10 μg/mL) was “Z (MIC of greater than 8 μg/mL)”. For the same molecule, the “Ceftazidime MIC” value ([28]; derivative at 10 μg/mL) was “Z (MIC of greater than 8 μg/mL)”, the “Ceftazidime MIC” value ([29]; derivative at 10 μg/mL) was “Y (MIC of greater than 1 μg/mL to 8 μg/mL)” and the “Ceftazidime MIC” value ([30]; derivative at 10 μg/mL) was “Y (MIC of greater than 1 μg/mL to 8 μg/mL)”. For the same molecule, the “Ceftazidime MIC” value ([31]; derivative at 10 μg/mL) was “Z (MIC of greater than 8 μg/mL)”.
